In patent US6420388B1, “Osanetant in the treatment of depression and depressive disorders” (Sanofi-Synthelabo, priority 1999, dated 2002):

Tested on: major depressive disorders
Assay: Effect of osanetant on major depressive disorders in patients
Assay type: in vivo, human
Settings: patients 18 to 65 years of age with major depressive disorders; osanetant 200 mg/day for about 6 weeks
Procedure: The effect of osanetant on major depressive disorders has been investigated in patients of between 18 and 65 years of age. The patients were given osanetant (200 mg/day) for a period of about 6 weeks.

## CC(=O)N(C)C1(c2ccccc2)CCN(CCC[C@]2(c3ccc(Cl)c(Cl)c3)CCCN(C(=O)c3ccccc3)C2)CC1 [osanetant, (R)-(+)-N-[(3-(1-benzoyl-3-(3,4-dichlorophenyl)piperidin-3-yl)propyl)-4-phenylpiperidin-4-yl]-N-methyl acetamide]
  scores on the Hamilton scale (improvement in the depressive syndrome): significant reduction
